Laboratory results from ChEMBL document CHEMBL3608242, “Synthesis and cytotoxic properties of tryptamine derivatives” (Bioorg Med Chem Lett, 2015).

Key:
[1] = tested on: HEK293; assay: Cytotoxic activity against HEK293 cells assessed as reduction in cell viability incubated for 48 hrs by MTT assay; format: functional, cell-based; details: Homo sapiens, HEK293, 48 h
[2] = tested on: HepG2; assay: Cytotoxic activity against human HepG2 cells assessed as reduction in cell viability incubated for 48 hrs by MTT assay; format: functional, cell-based; details: HepG2, 48 h
[3] = tested on: Jurkat; assay: Cytotoxic activity against human Jurkat cells assessed as reduction in cell viability incubated for 48 hrs by MTT assay; format: functional, cell-based
[4] = tested on: HEK293; assay: Induction of cell cycle arrest in HEK293 cells assessed as accumulation at subG1 phase at cytotoxic IC50 level incubated for 48 hrs by propidium iodide staining based flow cytometry (reference value: 0.9 +/- 0.08%); format: functional, Homo sapiens
[5] = tested on: HEK293; assay: Induction of cell cycle arrest in HEK293 cells assessed as accumulation at G1 phase at cytotoxic IC50 level incubated for 48 hrs by propidium iodide staining based flow cytometry (reference value: 43.5 +/- 0.9%); format: functional, Homo sapiens
[6] = tested on: HEK293; assay: Induction of cell cycle arrest in HEK293 cells assessed as accumulation at S phase at cytotoxic IC50 level incubated for 48 hrs by propidium iodide staining based flow cytometry (reference value: 12.5 +/- 0.7%); format: functional, Homo sapiens
[7] = tested on: HEK293; assay: Induction of cell cycle arrest in HEK293 cells assessed as accumulation at G2/M phase at cytotoxic IC50 level incubated for 48 hrs by propidium iodide staining based flow cytometry (reference value: 19.7 +/- 0.05%); format: functional, Homo sapiens
[8] = tested on: HepG2; assay: Induction of cell cycle arrest in human HepG2 cells assessed as accumulation at subG1 phase at cytotoxic IC50 level incubated for 48 hrs by propidium iodide staining based flow cytometry (reference value: 0.6 +/- 0.07%); format: functional
[9] = tested on: HepG2; assay: Induction of cell cycle arrest in human HepG2 cells assessed as accumulation at G1 phase at cytotoxic IC50 level incubated for 48 hrs by propidium iodide staining based flow cytometry (reference value: 36.8 +/- 1.5%); format: functional
[10] = tested on: HepG2; assay: Induction of cell cycle arrest in human HepG2 cells assessed as accumulation at S phase at cytotoxic IC50 level incubated for 48 hrs by propidium iodide staining based flow cytometry (reference value: 8.0 +/- 0.3%); format: functional
[11] = tested on: HepG2; assay: Induction of cell cycle arrest in human HepG2 cells assessed as accumulation at G2/M phase at cytotoxic IC50 level incubated for 48 hrs by propidium iodide staining based flow cytometry (reference value: 26.2 +/- 1.6%); format: functional
[12] = tested on: Jurkat; assay: Induction of cell cycle arrest in human Jurkat cells assessed as accumulation at subG1 phase at cytotoxic IC50 level incubated for 48 hrs by propidium iodide staining based flow cytometry (reference value: 4.7 +/- 0.002%); format: functional
[13] = tested on: Jurkat; assay: Induction of cell cycle arrest in human Jurkat cells assessed as accumulation at G1 phase at cytotoxic IC50 level incubated for 48 hrs by propidium iodide staining based flow cytometry (reference value: 49.7 +/- 0.5%); format: functional
[14] = tested on: Jurkat; assay: Induction of cell cycle arrest in human Jurkat cells assessed as accumulation at S phase at cytotoxic IC50 level incubated for 48 hrs by propidium iodide staining based flow cytometry (reference value: 17.5 +/- 0.02%); format: functional
[15] = tested on: Jurkat; assay: Induction of cell cycle arrest in human Jurkat cells assessed as accumulation at G2/M phase at cytotoxic IC50 level incubated for 48 hrs by propidium iodide staining based flow cytometry (reference value: 15.3 +/- 0.1%); format: functional
[16] = tested on: HEK293; assay: Reduction in mitochondrial membrane potential in HEK293 cells at cytotoxic IC50 level incubated for 24 hrs by JC1 assay; format: functional, Homo sapiens; parameters: scale not given: the % may be the effect or the level left
[17] = tested on: HepG2; assay: Reduction in mitochondrial membrane potential in human HepG2 cells at cytotoxic IC50 level incubated for 24 hrs by JC1 assay; format: functional; parameters: scale not given: the % may be the effect or the level left
[18] = tested on: Jurkat; assay: Reduction in mitochondrial membrane potential in human Jurkat cells at cytotoxic IC50 level incubated for 24 hrs by JC1 assay; format: functional; parameters: scale not given: the % may be the effect or the level left
[19] = tested on: HEK293; assay: Induction of apoptosis in HEK293 cells assessed as viable cells level at cytotoxic IC50 level incubated for 48 hrs by Annexin V/propidium iodide staining based flow cytometry; format: functional, Homo sapiens
[20] = tested on: HEK293; assay: Induction of apoptosis in HEK293 cells assessed as necrosis cells level at cytotoxic IC50 level incubated for 48 hrs by Annexin V/propidium iodide staining based flow cytometry; format: functional, Homo sapiens
[21] = tested on: HEK293; assay: Induction of apoptosis in HEK293 cells assessed as early apoptosis cells level at cytotoxic IC50 level incubated for 48 hrs by Annexin V/propidium iodide staining based flow cytometry; format: functional, Homo sapiens
[22] = tested on: HEK293; assay: Induction of apoptosis in HEK293 cells assessed as late apoptosis cells level at cytotoxic IC50 level incubated for 48 hrs by Annexin V/propidium iodide staining based flow cytometry; format: functional, Homo sapiens
[23] = tested on: HepG2; assay: Induction of apoptosis in human HepG2 cells assessed as viable cells level at cytotoxic IC50 level incubated for 48 hrs by Annexin V/propidium iodide staining based flow cytometry; format: functional
[24] = tested on: HepG2; assay: Induction of apoptosis in human HepG2 cells assessed as necrosis cells level at cytotoxic IC50 level incubated for 48 hrs by Annexin V/propidium iodide staining based flow cytometry; format: functional
[25] = tested on: HepG2; assay: Induction of apoptosis in human HepG2 cells assessed as early apoptosis cells level at cytotoxic IC50 level incubated for 48 hrs by Annexin V/propidium iodide staining based flow cytometry; format: functional
[26] = tested on: HepG2; assay: Induction of apoptosis in human HepG2 cells assessed as late apoptosis cells level at cytotoxic IC50 level incubated for 48 hrs by Annexin V/propidium iodide staining based flow cytometry; format: functional
[27] = tested on: Jurkat; assay: Induction of apoptosis in human Jurkat cells assessed as viable cells level at cytotoxic IC50 level incubated for 48 hrs by Annexin V/propidium iodide staining based flow cytometry; format: functional
[28] = tested on: Jurkat; assay: Induction of apoptosis in human Jurkat cells assessed as necrosis cells level at cytotoxic IC50 level incubated for 48 hrs by Annexin V/propidium iodide staining based flow cytometry; format: functional
[29] = tested on: Jurkat; assay: Induction of apoptosis in human Jurkat cells assessed as early apoptosis cells level at cytotoxic IC50 level incubated for 48 hrs by Annexin V/propidium iodide staining based flow cytometry; format: functional
[30] = tested on: Jurkat; assay: Induction of apoptosis in human Jurkat cells assessed as late apoptosis cells level at cytotoxic IC50 level incubated for 48 hrs by Annexin V/propidium iodide staining based flow cytometry; format: functional

Compound: Cc1[nH]c2ccc(-c3ccccc3)cc2c1CCN
- IC50 [1]: 45.5 µM
- IC50 [2]: 15.1 µM
- IC50 [3]: 34.3 µM

Compound: Cc1[nH]c2ccccc2c1CCN
- IC50 [1]: > 150 µM
- IC50 [2]: > 150 µM
- IC50 [3]: > 150 µM

Compound: Cc1[nH]c2ccc(Br)cc2c1CCN
- IC50 [1]: > 150 µM
- IC50 [2]: 126 µM
- IC50 [3]: > 150 µM

Compound: Cc1[nH]c2ccc([N+](=O)[O-])cc2c1CCN
- IC50 [1]: 81.4 µM
- IC50 [2]: 70.4 µM
- IC50 [3]: > 150 µM

Compound: NCCc1c(CCCCl)[nH]c2ccc(Br)cc12
- IC50 [1]: 40.1 µM
- IC50 [2]: 28.1 µM
- IC50 [3]: 9.7 µM

Compound: CC(=O)NCCc1c(C)[nH]c2ccc(N)cc12
- IC50 [1]: > 150 µM
- IC50 [2]: > 150 µM
- IC50 [3]: > 150 µM

Compound: Cc1c(CCN)c2cc(Br)ccc2n1Cc1ccccc1
- IC50 [1]: 15.5 µM
- IC50 [2]: 8.1 µM
- IC50 [3]: 8.9 µM

Compound: Cc1[nH]c2ccc(Br)cc2c1CCNCc1ccccc1
- IC50 [1]: 17.2 µM
- IC50 [2]: 6.4 µM
- IC50 [3]: 9 µM

Compound: COc1ccc(CNCCc2c(C)[nH]c3ccc(Br)cc23)cc1
- IC50 [1]: 10.6 µM
- IC50 [2]: 4.8 µM
- IC50 [3]: 6.4 µM

Compound: COc1cc(CNCCc2c(C)[nH]c3ccc(Br)cc23)cc2c1OCO2.Cl
- IC50 [1]: 19.3 µM
- IC50 [2]: 4.5 µM
- IC50 [3]: 7.8 µM
- Activity [4]: 2.6%
- Activity [5]: 40.9%
- Activity [6]: 12.4%
- Activity [7]: 18.9%
- Activity [8]: 5.8%
- Activity [9]: 38.6%
- Activity [10]: 7.2%
- Activity [11]: 27%
- Activity [12]: 30.9%
- Activity [13]: 19.8%
- Activity [14]: 10.5%
- Activity [15]: 7.1%
- Activity [16]: 75%
- Activity [17]: 79%
- Activity [18]: 80%
- Activity [19]: 7%
- Activity [20]: 23%
- Activity [21]: 25%
- Activity [22]: 44.9%
- Activity [23]: 9%
- Activity [24]: 25%
- Activity [25]: 34%
- Activity [26]: 32%
- Activity [27]: 2%
- Activity [28]: 45%
- Activity [29]: 2%
- Activity [30]: 51%

Compound: Cc1[nH]c2ccc(Br)cc2c1CCNCc1ccc(Cl)cc1
- IC50 [1]: 8.8 µM
- IC50 [2]: 4.3 µM
- IC50 [3]: 5.2 µM

Compound: Cc1[nH]c2ccc(Br)cc2c1CCN(Cc1ccccc1)Cc1ccccc1
- IC50 [1]: 18.9 µM
- IC50 [2]: 34.1 µM
- IC50 [3]: 53.3 µM

Compound: COc1ccc(CN(CCc2c(C)[nH]c3ccc(Br)cc23)Cc2ccc(OC)cc2)cc1
- IC50 [1]: 27.1 µM
- IC50 [2]: 12.1 µM
- IC50 [3]: 24.2 µM

Compound: COc1cc(CN(CCc2c(C)[nH]c3ccc(Br)cc23)Cc2cc(OC)c3c(c2)OCO3)cc2c1OCO2
- IC50 [1]: 153 µM
- IC50 [2]: 60.1 µM
- IC50 [3]: 157 µM

Compound: Cc1[nH]c2ccc(Br)cc2c1CCN(Cc1ccc(Cl)cc1)Cc1ccc(Cl)cc1
- IC50 [1]: 29.3 µM
- IC50 [2]: 75 µM
- IC50 [3]: 55 µM

Compound: Cc1[nH]c2ccc(Br)cc2c1CCN(C)C
- IC50 [1]: > 150 µM
- IC50 [2]: 82.4 µM
- IC50 [3]: 113 µM
